Data reported in PubChem BioAssay (NCI).
Values joined by “and” are separate entries in the source; they are usually repeats but may differ in a detail not shown here. Equal entries are not always repeated.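 Following 48 hours of exposure in 96-well plates, responses at five concentrations were used to interpolate endpoints linearly. GI50 = concentration required for 50% inhibition of growth. TGI denotes the concentration required for complete inhibition of growth.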

Assays:
Experiment in all cases: NCI-60 cell line screen, 48 h
SF-539 CNS = system: SF-539 CNS
UACC-62 melanoma = system: UACC-62 melanoma
SNB-19 CNS = system: SNB-19 CNS
OVCAR-8 ovarian = system: OVCAR-8 ovarian
HOP-92 NSCLC = system: HOP-92 NSCLC
NCI/ADR-RES ovarian = system: NCI/ADR-RES ovarian
HCC-2998 colon = system: HCC-2998 colon
NCI-H522 lung = system: NCI-H522 lung
EKVX NSCLC = system: EKVX NSCLC
HL-60(TB) leukemia = system: HL-60(TB) leukemia

SMILES | GI50 (SF-539 CNS) | TGI (SF-539 CNS) | GI50 (UACC-62 melanoma) | TGI (UACC-62 melanoma) | GI50 (SNB-19 CNS) | TGI (SNB-19 CNS) | GI50 (OVCAR-8 ovarian) | TGI (OVCAR-8 ovarian) | GI50 (HOP-92 NSCLC) | TGI (HOP-92 NSCLC) | GI50 (NCI/ADR-RES ovarian) | TGI (NCI/ADR-RES ovarian) | GI50 (HCC-2998 colon) | TGI (HCC-2998 colon) | GI50 (NCI-H522 lung) | TGI (NCI-H522 lung) | GI50 (EKVX NSCLC) | TGI (EKVX NSCLC) | GI50 (HL-60(TB) leukemia) | TGI (HL-60(TB) leukemia)
C=C(C)[C@@H]1CC[C@]2(C(N)=O)CC[C@]3(C)[C@H](CC[C@@H]4[C@@]5(C)C/C(=C/c6cccnc6)[C@H](O)C(C)(C)[C@@H]5CC[C@]43C)[C@@H]12 | 4.89 µM | > 100 µM | 5.38 µM | > 100 µM | 6.02 µM | > 100 µM | 4.54 µM | > 100 µM | 6.37 µM | > 100 µM | 3.74 µM | > 100 µM | 4.66 µM | > 100 µM | 3.93 µM | > 100 µM | 4.03 µM | > 100 µM | 2.69 µM | 11.2 µM
Cn1sc2ccccc2c1=S |  | 16.4 µM |  | 18.1 µM |  | 31.4 µM |  | 22.3 µM |  | 36.1 µM |  | 9.38 µM |  | 45.9 µM |  | 9.36 µM |  | 27.6 µM |  | 27.2 µM
COc1cnc2c(c1)C(=O)c1c-2n(CCCNC(C)C)c(=O)c2cc([N+](=O)[O-])ccc12 | 0.0519 µM | 0.204 µM | 0.0191 µM | 0.123 µM | 0.0423 µM | 0.896 µM | 0.0468 µM | 0.541 µM | 1.09 µM | 2.82 µM | 0.0343 µM | 0.267 µM | 0.109 µM | 0.269 µM | 0.0233 µM | 0.158 µM | 0.134 µM | 0.706 µM | 0.0336 µM | 0.111 µM
c1ccc2c3c(ccc2c1)-c1c(ccc2c(NCCCCN4CCCCC4)cccc12)C3 | 1.79 µM | 3.44 µM | 1.79 µM | 3.24 µM | 22.2 µM | 63.5 µM | 2.19 µM | 5.61 µM | 2.46 µM | 7.73 µM | 1.61 µM | 2.96 µM | 1.63 µM | 3.49 µM | 3.42 µM | 9.22 µM | 10.7 µM | 28 µM | 2.48 µM | 14.6 µM
CN1CCN(CC(=O)N2c3cccc4cccc(c34)N(C(=O)CN3CCN(C)CC3)C2c2cn(-c3ccccc3)nc2-c2cccc([N+](=O)[O-])c2)CC1 | 1.69 µM | 3.19 µM | 1.77 µM | 3.38 µM | 2.96 µM | 11.3 µM | 2.35 µM | 5.79 µM | 1.13 µM | 3.18 µM | 3.68 µM | 14.3 µM | 1.54 µM | 3.01 µM | 1.92 µM | 4.13 µM | 2.84 µM | 11.5 µM | 1.89 µM | 3.75 µM
CCCCCC/C=C1\CCC(CN(C)C)C1=O (stereo unspecified) |  | 28.1 µM |  | 14.9 µM |  | 30.8 µM |  | 13.5 µM |  | 28.8 µM |  | 44.4 µM |  | 18.3 µM |  | 6.28 µM |  | 42.3 µM |  | 4.8 µM
CCCCCCNCCCNc1c2ccccc2nc2cccc([N+](=O)[O-])c12 | 0.0507 µM | 0.307 µM and 0.225 µM | 0.0181 µM | 0.131 µM and 0.0618 µM | 0.017 µM |  |  | 0.136 µM and 0.17 µM |  | 0.0792 µM and 0.0693 µM | 0.54 µM | 1.66 µM and 2.8 µM |  | 0.021 µM |  | 0.0421 µM | 0.185 µM | 0.12 µM and 0.812 µM | 0.0216 µM | 
COc1cc(C)c(NC(=O)CN(C)C)cc1Nc1nc(Nc2cccc(F)c2C(N)=O)c2cc[nH]c2n1 | 3.05 µM | 7.07 µM | 1.16 µM | 7.89 µM | 4.02 µM | 16 µM | 1.64 µM | 6.32 µM | 0.0124 µM | 2.66 µM | 2.64 µM | 7.59 µM | 0.621 µM | 5.09 µM | 0.623 µM | 3.69 µM | 0.937 µM | 12.5 µM | 0.0205 µM | 0.875 µM
CCN1CCN(c2ccc(Nc3ncc4ccc5ncn(C(C)C)c5c4n3)nc2)CC1 | 0.171 µM | 0.394 µM | 0.199 µM | 0.723 µM | 0.187 µM | 15.5 µM | 0.311 µM | 16.3 µM | 0.155 µM | 0.474 µM | 0.292 µM | 13.9 µM | 0.161 µM | 1.43 µM | 0.208 µM | 0.809 µM | 0.131 µM | 0.563 µM | < 0.0238 µM | 0.586 µM
Cc1nn(C)c2cc(N(C)c3ccnc(Nc4cccc(S(N)(=O)=O)c4)n3)ccc12 | 8.01 µM | > 25 µM | 5.94 µM | > 22.7 µM | 13.2 µM | > 25 µM | 7.15 µM | > 25 µM | 4.39 µM | > 25 µM | 7.85 µM | > 25 µM | 15.7 µM | > 25 µM | 3.46 µM | 19.2 µM | 6.92 µM | > 25 µM | 5.76 µM | 21.5 µM
O=S(=O)(CCCCl)SCCCCl |  | 53.4 µM |  | > 100 µM |  | > 100 µM |  | 18 µM |  | 78.3 µM |  | > 85.3 µM |  | > 100 µM |  | 32.6 µM |  | > 100 µM |  | 24.5 µM
C=C1C(=O)O[C@H]2[C@H]1CC/C(COC(=O)NCc1cc(OC)cc(OC)c1)=C\CC[C@@]1(C)O[C@@H]21 | 1.54 µM | 3.02 µM | 0.663 µM | 2.56 µM | 5.32 µM | 22.2 µM | 1.6 µM | 3.95 µM | 1.42 µM | 3.18 µM | 2.98 µM | 10.2 µM | 1.94 µM | 3.51 µM | 0.349 µM | 1.49 µM | 2.06 µM | 6.6 µM | 1.69 µM | 5.03 µM
Cn1c(=N)n[n+]([O-])c2ccccc21 |  | 3.67 µM and 2.98 µM |  | 2.37 µM and 3.61 µM | 2.63 µM and 6.41 µM | 12.3 µM and 13.3 µM |  | 31.6 µM and > 55.3 µM |  | 90.9 µM | 4.44 µM and 9.2 µM | > 100 µM and 42 µM |  | 39.1 µM |  | 10.7 µM and 15.6 µM |  | 18.3 µM |  | 10.1 µM and 10.4 µM
COc1cc(/C=C2\C[C@H]3[C@@H]4CC=C5C[C@@H](OC(C)=O)CC[C@]5(C)[C@H]4CC[C@]3(C)[C@H]2OC(C)=O)ccc1OCCN1CCCCC1 | 9.56 µM | 20.6 µM | 8.14 µM | 15 µM | 46.2 µM | > 50 µM | 13 µM | > 50 µM | 27.6 µM | > 50 µM | > 50 µM | > 50 µM | 10.9 µM | 19.9 µM | > 50 µM | > 50 µM | > 50 µM | > 50 µM | 40.7 µM | > 50 µM
C=C(CN(C)C)C(=O)c1ccc(Oc2ccccc2)cc1 |  | 12.2 µM |  | 13 µM |  | 28.8 µM |  | 25.3 µM |  | > 25.5 µM |  | > 100 µM |  | 32.3 µM |  | 2.72 µM |  | 44 µM |  | 3.46 µM
CC1=CC(=O)c2ccc(C)cc2C1=O |  | 30 µM |  | 21.9 µM |  | 30 µM |  | 26.8 µM |  | 4.2 µM |  | > 100 µM |  | 34.7 µM |  | 18.5 µM |  | 23.9 µM |  | 5.4 µM
